Laboratory results reported in patent publication US10968264B2, “Cyclic peptide tyrosine tyrosine compounds as modulators of neuropeptide Y receptors” (priority 2016, dated 2021).
Numbered stars: 1 amine (or outer) side, 2 acyl side, 3 side chain; on linkers, the order of the positions; unused ones are H or OH. Bridge positions count the residues as written; N and C are the ends. Side chains are listed from the residue outwards. Peptide text beside a SMILES is read from it. * marks the point of attachment. Argψ(CH2NH)TyrNH2 = N=C(N)NCCC[C@@H](CN[C@@H](Cc1ccc(O)cc1)C(N)=O)N*; C18 diacid = O=C(O)CCCCCCCCCCCCCCCCC(=O)*; γGlu = O=C(O)[C@H](CCC(=O)[*:2])N[*:1]; AEEA = NCCOCCOCC(=O)O

Target: T1, human NPY2R (Homo sapiens, UniProt P49146)
T1 construct: expressed in transfected cells; host or cells: HEK cells
T1 sequence (P49146 whole entry): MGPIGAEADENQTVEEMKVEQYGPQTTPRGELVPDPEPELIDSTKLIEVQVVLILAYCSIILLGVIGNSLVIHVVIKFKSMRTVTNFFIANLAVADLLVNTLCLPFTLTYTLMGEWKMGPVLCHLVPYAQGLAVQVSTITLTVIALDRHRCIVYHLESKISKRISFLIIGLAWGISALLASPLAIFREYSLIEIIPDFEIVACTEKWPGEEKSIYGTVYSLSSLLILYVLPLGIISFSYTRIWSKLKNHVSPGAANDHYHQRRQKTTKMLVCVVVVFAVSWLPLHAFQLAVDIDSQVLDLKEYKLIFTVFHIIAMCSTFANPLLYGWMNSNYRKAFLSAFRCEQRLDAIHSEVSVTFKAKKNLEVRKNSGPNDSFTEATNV
Experiment: Human NPY2R cAMP in vitro potency assay (hY2 assay), inhibition of forskolin-induced cAMP, LANCE FRET
Assay type: cell-based
Protocol: The method used to test the potency of PYY analogs in vitro was a cell based assay designed to measure inhibition of forskolin-induced cAMP produced by adenylate cyclase through modulation of the human NPY2R Gi-protein coupled receptor.
Cells were thawed from cryopreservation and added to 15 ml of cell media (DMEM/high glucose (Cellgro), 10% FBS (Hyclone), 1% Pen/Strep (Life Technologies), 1% L-Glutamine (Thermo Scientific), 1% Na Pyruvate (Thermo Scientific)). […] Supernatants in the assay plate were decanted. Dilutions of PYY analogs and controls were prepared in 1×HBSS (Cellgro), 5 mM HEPES (Cellgro), 0.1% BSA (PerkinElmer) and 0.5 mM 3-isobutyl-1-methylxanthine (Sigma), and 6 μL/well of each sample were added to designated wells. […] All samples were measured in triplicate. Data were analyzed using the Crucible in-house data analysis software, designed by Eudean Shaw. The unknown cAMP concentrations within each well were interpolated from the reference standards of known cAMP concentrations included within each plate.

[1] = Y2R EC50 (nM) SEQ ID NO: 2-39, human NPY2R transfected HEK cells, NTSC-PYY compound

SMILES | EC50 [1] [nM] | EC50 (Y2R EC50 (nM) SEQ ID NO: 2-39) [nM]
CCCCCCCCCCCCCCCC(=O)N[C@@H](CCC(=O)NCCCC[C@@H]1NC(=O)[C@H](CC(N)=O)NC(=O)[C@H](CC(C)C)NC(=O)[C@H](Cc2ccc(O)cc2)NC(=O)[C@H](C)NC(=O)[C@H](CCCNC(=N)N)NC(=O)[C@H](CC(C)C)NC(=O)[C@H](CO)NC(=O)[C@H](C)NC(=O)[C@H](Cc2ccc(O)cc2)NC(=O)[C@H](Cc2ccc(O)cc2)NC(=O)[C@H](CCCNC(=N)N)NC(=O)[C@H](CC(N)=O)NC(=O)[C@H](CC(C)C)NC(=O)[C@H](CCC(=O)O)NC(=O)[C@H](CCC(=O)O)NC(=O)[C@@H]2CCCN2C(=O)[C@H](CO)NC(=O)[C@H](C)NC(=O)[C@H](CC(=O)O)NC(=O)[C@H](CCC(=O)O)NC(=O)CNC(=O)[C@@H]2CCCN2C(=O)[C@H](C)NC(=O)[C@H](CCC(=O)O)NC(=O)[C@@H]2CCCN2C(=O)[C@H](C)NC(=O)[C@H]([C@@H](C)CC)NC(=O)c2cccc(c2)CSCC[C@@H](C(=O)N[C@H](C(=O)N[C@@H](CCCNC(=N)N)C(=O)N[C@@H](CCC(N)=O)C(=O)N[C@@H](CCCNC(=N)N)C(=O)N[C@@H](Cc2ccc(O)cc2)C(N)=O)[C@@H](C)O)NC1=O)C(=O)O [SEQ ID NO: 21] | 0.49 | 
CCCCCCCCCCCCCCCC(=O)N[C@@H](CCC(=O)NCCCC[C@@H]1NC(=O)[C@H](CC(N)=O)NC(=O)[C@H](CC(C)C)NC(=O)[C@H](Cc2ccc(O)cc2)NC(=O)[C@H](C)NC(=O)[C@H](CCCNC(=N)N)NC(=O)[C@H](CC(C)C)NC(=O)[C@H](CO)NC(=O)[C@H](C)NC(=O)[C@H](Cc2ccc(O)cc2)NC(=O)[C@H](Cc2ccc(O)cc2)NC(=O)[C@H](CCCNC(=N)N)NC(=O)[C@H](CC(N)=O)NC(=O)[C@H](CC(C)C)NC(=O)[C@H](CCC(=O)O)NC(=O)[C@H](CCC(=O)O)NC(=O)[C@@H]2CCCN2C(=O)[C@H](CO)NC(=O)[C@H](C)NC(=O)[C@H](CC(=O)O)NC(=O)[C@H](CCC(=O)O)NC(=O)CNC(=O)[C@@H]2CCCN2C(=O)[C@H](C)NC(=O)[C@H](CCC(=O)O)NC(=O)[C@@H]2CCCN2C(=O)[C@H](CCC(=O)O)NC(=O)[C@H]([C@@H](C)CC)NC(=O)c2cccc(c2)CSCC[C@@H](C(=O)N[C@H](C(=O)N[C@@H](CCCNC(=N)N)C(=O)N[C@@H](CCC(N)=O)C(=O)N[C@@H](CCCNC(=N)N)C(=O)N[C@@H](Cc2ccc(O)cc2)C(N)=O)[C@@H](C)O)NC1=O)C(=O)O [SEQ ID NO: 22] |  | 4.4
CC[C@H](C)[C@@H]1NC(=O)CCNC(=O)CSC[C@@H](C(=O)N[C@H](C(=O)N[C@H](C(=O)N[C@@H](CCCNC(=N)N)C(=O)N[C@@H](CCC(N)=O)C(=O)N[C@@H](CCCNC(=N)N)CN[C@@H](Cc2ccc(O)cc2)C(N)=O)[C@@H](C)O)C(C)C)NC(=O)[C@H](CC(N)=O)NC(=O)[C@H](CC(C)C)NC(=O)[C@H](Cc2ccc(O)cc2)NC(=O)[C@H](Cc2c[nH]cn2)NC(=O)[C@H](CCCNC(=N)N)NC(=O)[C@H](CC(C)C)NC(=O)[C@H](CO)NC(=O)[C@H](C)NC(=O)[C@H](Cc2ccc(O)cc2)NC(=O)[C@H](Cc2ccc(O)cc2)NC(=O)[C@H](CCCNC(=N)N)NC(=O)[C@H](CC(N)=O)NC(=O)[C@H](CC(C)C)NC(=O)[C@H](CCC(=O)O)NC(=O)[C@H](CCC(=O)O)NC(=O)[C@@H]2CCCN2C(=O)[C@H](CO)NC(=O)[C@H](C)NC(=O)[C@H](CCCCNC(=O)COCCOCCNC(=O)COCCOCCNC(=O)CC[C@H](NC(=O)CCCCCCCCCCCCCCCCC(=O)O)C(=O)O)NC(=O)[C@H](CCC(=O)O)NC(=O)CNC(=O)[C@@H]2CCCN2C(=O)[C@H](C)NC(=O)[C@H](CCC(=O)O)NC(=O)[C@@H]2CCCN2C(=O)[C@H](CCCCN)NC1=O [SEQ ID NO: 68] |  | 0.27
CC[C@H](C)[C@@H]1NC(=O)CNC(=O)CC[C@@H](C(=O)N[C@H](C(=O)N[C@H](C(=O)N[C@@H](CCCNC(=N)N)C(=O)N[C@@H](CCC(N)=O)C(=O)N[C@@H](CCCNC(=N)N)CN[C@@H](Cc2ccc(O)cc2)C(N)=O)[C@@H](C)O)C(C)C)NC(=O)[C@H](CC(N)=O)NC(=O)[C@H](CC(C)C)NC(=O)[C@H](Cc2ccc(O)cc2)NC(=O)[C@H](Cc2c[nH]cn2)NC(=O)[C@H](CCCNC(=N)N)NC(=O)[C@H](CC(C)C)NC(=O)[C@H](CO)NC(=O)[C@H](C)NC(=O)[C@H](Cc2ccc(O)cc2)NC(=O)[C@H](Cc2ccc(O)cc2)NC(=O)[C@H](CCCNC(=N)N)NC(=O)[C@H](CC(N)=O)NC(=O)[C@H](CC(C)C)NC(=O)[C@H](CCC(=O)O)NC(=O)[C@H](CCC(=O)O)NC(=O)[C@@H]2CCCN2C(=O)[C@H](CO)NC(=O)[C@H](C)NC(=O)[C@H](CCCCN)NC(=O)[C@H](CCC(=O)O)NC(=O)CNC(=O)[C@@H]2CCCN2C(=O)[C@H](C)NC(=O)[C@H](CCC(=O)O)NC(=O)[C@@H]2CCCN2C(=O)[C@H](CO)NC1=O [SEQ ID NO: 70, [cyclo-(G2-E30), S4, K11, psi-(R35,Y36)]-PYY2-36] (HELM PEPTIDE1{G.I.S.P.E.A.P.G.E.K.A.S.P.E.E.L.N.R.Y.Y.A.S.L.R.H.Y.L.N.E.V.T.R.Q.[N=C(N)NCCC[C@@H](CN[C@@H](Cc1ccc(O)cc1)C(N)=O)N[*:1]]}$PEPTIDE1,PEPTIDE1,1:R1-29:R3$$$V2.0) |  | 0.02
CC[C@H](C)[C@@H]1NC(=O)CNC(=O)CC[C@@H](C(=O)N[C@H](C(=O)N[C@H](C(=O)N[C@@H](CCCNC(=N)N)C(=O)N[C@@H](CCC(N)=O)C(=O)N[C@@H](CCCNC(=N)N)CN[C@@H](Cc2ccc(O)cc2)C(N)=O)[C@@H](C)O)C(C)C)NC(=O)[C@H](CC(N)=O)NC(=O)[C@H](CC(C)C)NC(=O)[C@H](Cc2ccc(O)cc2)NC(=O)[C@H](Cc2c[nH]cn2)NC(=O)[C@H](CCCNC(=N)N)NC(=O)[C@H](CC(C)C)NC(=O)[C@H](CO)NC(=O)[C@H](C)NC(=O)[C@H](Cc2ccc(O)cc2)NC(=O)[C@H](Cc2ccc(O)cc2)NC(=O)[C@H](CCCNC(=N)N)NC(=O)[C@H](CC(N)=O)NC(=O)[C@H](CC(C)C)NC(=O)[C@H](CCC(=O)O)NC(=O)[C@H](CCC(=O)O)NC(=O)[C@@H]2CCCN2C(=O)[C@H](CO)NC(=O)[C@H](C)NC(=O)[C@H](CCCCNC(=O)COCCOCCNC(=O)COCCOCCNC(=O)CC[C@H](NC(=O)CCCCCCCCCCCCCCCCC(=O)O)C(=O)O)NC(=O)[C@H](CCC(=O)O)NC(=O)CNC(=O)[C@@H]2CCCN2C(=O)[C@H](C)NC(=O)[C@H](CCC(=O)O)NC(=O)[C@@H]2CCCN2C(=O)[C@H](CO)NC1=O [SEQ ID NO: 72] (GISPEAPGEK([AEEA-AEEA-γGlu-C18 diacid])ASPEELNRYYASLRHYLNEVTRQ-{Argψ(CH2NH)TyrNH2}; lactam N-29) | 1.75 | 
